Reference: EP2599767A1, “Phenylbutyl-derivatives” (Lunamed AG, priority 2011, dated 2013)
Like-named read-outs stand apart in the source and are kept apart here.

What was measured:
Jurkat cells [1] = experiment: Apoptosis assay (active Caspase 3/7 by FAM-DEVD-FMK probe, flow cytometry); type: cell-based; details: Jurkat cell line; for EC50: Homo sapiens, pro-apoptotic effects; for EC50 / pro-apoptotic effect (in words): 48 hours of treatment; for caspase dependence: effects in presence of zVAD-FMK (in words): 100µM zVAD-FMK, Example 4 at 5mM; for pro-apoptotic effect (in words): Example 3: 30mM and 10mM
Protocol: This study was performed using the following cell line on the two types of experiments performed: • Experiment 1: Study of the effects of compounds of Examples 3 and 4 according to the invention on apoptosis and cell proliferation: • o Jurkat: acute T cell leukemia • Experiment 2: Study of the caspase dependency of cell death induced by the compounds of Example 3 and 4 according to the invention. • o Jurkat: acute T cell leukemia Apoptosis was quantified at the single cell level by titrating active Caspase 3/7. This assay is based on the strong affinity of the FAM-DEVD-FMK peptide (carboxyfluorescein-labeled fluoromethyl ketone) for the catalytic site of the protease. When added to a cell culture, the FAM-DEVD-FMK probe enters cells and covalently binds to the large subunit of the active caspase 3/7. The bound labelled peptide remains within the cytosolic compartment, while the unbound peptides are drained off from the cell. The probe emits a green fluorescent signal which allows a direct measure of the amount of active caspase 3/7 present in the cell. All the conditions were performed in triplicate. Detection of cellular events was performed in triplicate in 96 well-plates after 48 hours of treatment by automated flow cytometry. Non-linear regressions and IC50 calculation were performed with GraphPad Prism 4.01 software. Briefly the time course of the experiments was the following: • o day 1 : seeding of cells in 96 well-plates. • o day 2 : treatment with compounds. • o day 4 : analysis at 48h-treatment. […] Effects of the two compounds of Examples 3 and 4 on apoptosis and cell proliferation in the Jurkat cell line: • The cells were labeled for subsequent cell proliferation measurements and plated in 96 well culture plates in standard culture conditions. • 24 hours after plating, the cells were treated with the two compounds of Examples 3 and 4. Experiment 2: […] zVad-FMK is a cell-permeant pan caspase inhibitor that irreversibly binds to the catalytic site of caspase proteases and can inhibit induction of apoptosis.

Jurkat cells [2] = experiment: Cell proliferation assay (dilution of fluorescent membrane marker, flow cytometry); type: cell-based; details: for IC50: Homo sapiens, Jurkat, 48 h; for anti-proliferative effect (in words): Jurkat cell line, 48 hours of treatment, without zVAD, Example 3: 30mM and 10mM
Protocol: This study was performed using the following cell line on the two types of experiments performed: • Experiment 1: Study of the effects of compounds of Examples 3 and 4 according to the invention on apoptosis and cell proliferation: • o Jurkat: acute T cell leukemia • Experiment 2: Study of the caspase dependency of cell death induced by the compounds of Example 3 and 4 according to the invention. • o Jurkat: acute T cell leukemia This assay is based on the dilution rate of a fluorescent membrane marker which is a direct function of cell division. This probe is non toxic and allows the multiplexed detection of other parameters on the same cell population. The assay is performed by loading the cells with a fluorescent phospholipid analogue before plating. […] Subsequently, Flow cytometry analyzes the dilution rate of the fluorescent probe at the single cell level which is a direct readout of the number of cell divisions. All the conditions were performed in triplicate. Detection of cellular events was performed in triplicate in 96 well-plates after 48 hours of treatment by automated flow cytometry. Non-linear regressions and IC50 calculation were performed with GraphPad Prism 4.01 software. Briefly the time course of the experiments was the following: • o day 1 : seeding of cells in 96 well-plates. • o day 2 : treatment with compounds. • o day 4 : analysis at 48h-treatment. […] Effects of the two compounds of Examples 3 and 4 on apoptosis and cell proliferation in the Jurkat cell line: • The cells were labeled for subsequent cell proliferation measurements and plated in 96 well culture plates in standard culture conditions. • 24 hours after plating, the cells were treated with the two compounds of Examples 3 and 4. Experiment 2: […]

[3] = Solubility in solvents (qualitative); type: physicochemical; details: solvents as named in the value
[4] = without zVAD, read-out: EC50 (without zVAD)
[5] = +100µM zVAD, read-out: EC50 (+100µM zVAD)

| Compound | EC50 (Jurkat cells [1]; [4]) [mM] | IC50 (Jurkat cells [2]; read-out: IC50 (+100µM zVAD)) [µM] | IC50 (Jurkat cells [2]; read-out: IC50 (without zVAD)) [µM] | EC50 (Jurkat cells [1]; [5]) [mM] | caspase dependence: effects in presence of zVAD-FMK (in words) (Jurkat cells [1]) | pro-apoptotic effect (in words) (Jurkat cells [1]; without zVAD) | solubility (in words) [3] | anti-proliferative effect (in words) (Jurkat cells [2]) |
| --- | --- | --- | --- | --- | --- | --- | --- | --- |
| CN[C@@H]1C[C@H]2O[C@@](C)([C@@H]1OC)n1c3ccccc3c3c4c(c5c6ccccc6n2c5c31)C(=O)NC4 [STS, Staurosporine, reference compound] | 2.3e-05 | 0.011 | 0.012 |  |  |  |  |  |
| CC(NC(=O)CCCc1ccccc1)C(=O)O (centres unmarked) [Example 3, 2-(4-Phenyl-butyrylamino)-propionic acid] | 6.4 | 4300 | 3200 | 13 | sensitive to 100µM zVAD-fmk | pro-apoptotic | soluble in alcohols (ethanol and methanol) as well as in acetic acid | anti-proliferative effects |
| C[C@H](NC(=O)CCCc1ccccc1)C(=O)OCCOC(=O)[C@@H](C)NC(=O)CCCc1ccccc1 [Example 4] |  |  | 9000 |  | no apoptosis was observed | able to induce apoptosis only at the highest concentration tested (5mM) | soluble in dichloromethane, ethyl acetate and acetonitrile | concentration dependent anti-proliferative effect |
| O=C(O)CCCc1ccccc1 [Example 4-PB, 4-Phenylbutyric acid, reference compound] | 3.2 | 2200 | 2600 | 10 | well inhibited by zVAD-FMK | able to elicit apoptosis |  | inhibit proliferation |
